Results taken from ChEMBL document CHEMBL2440076, “New triarylpyrazoles as broad-spectrum anticancer agents: design, synthesis, and biological evaluation” (Eur J Med Chem, 2013).

What was measured:
Assay type in all cases: functional
KM12 = assay: Growth inhibition of human KM12 cells assessed as cell growth at 5X10'-9 M after 48 hrs by sulforhodamine B assay; details: KM12, 48 h, read-out: Activity
MDA-MB-435 = assay: Growth inhibition of human MDA-MB-435 cells assessed as cell growth at 5X10'-5 M after 48 hrs by sulforhodamine B assay; details: MDA-MB-435, 48 h, read-out: Activity
SF-268 [1] = assay: Growth inhibition of human SF268 cells assessed as cell growth at 5X10'-5 M after 48 hrs by sulforhodamine B assay; details: SF-268, 48 h, read-out: Activity
SW-620 = assay: Growth inhibition of human SW620 cells assessed as cell growth at 5X10'-5 M after 48 hrs by sulforhodamine B assay; details: SW-620, 48 h, read-out: Activity
MOLT-4 = assay: Growth inhibition of human MOLT4 cells assessed as cell growth at 5X10'-5 M after 48 hrs by sulforhodamine B assay; details: MOLT-4, 48 h, read-out: Activity
MCF7 [2] = assay: Growth inhibition of human MCF7 cells assessed as cell growth at 5X10'-6 M after 48 hrs by sulforhodamine B assay; details: MCF7, 48 h, read-out: Activity
786-0 [3] = assay: Growth inhibition of human 786-0 cells assessed as cell growth at 5X10'-6 M after 48 hrs by sulforhodamine B assay; details: 786-0, 48 h, read-out: Activity
SK-OV-3 = assay: Growth inhibition of human SKOV3 cells assessed as cell growth at 5X10'-6 M after 48 hrs by sulforhodamine B assay; details: SK-OV-3, 48 h, read-out: Activity
OVCAR-8 [4] = assay: Growth inhibition of human OVCAR8 cells assessed as cell growth at 5X10'-6 M after 48 hrs by sulforhodamine B assay; details: OVCAR-8, 48 h, read-out: Activity
HOP-62 [5] = assay: Growth inhibition of human HOP62 cells assessed as cell growth at 5X10'-9 M after 48 hrs by sulforhodamine B assay; details: HOP-62, 48 h, read-out: Activity
SR = assay: Growth inhibition of human SR cells assessed as cell growth at 5X10'-9 M after 48 hrs by sulforhodamine B assay; details: read-out: Activity
MDA-MB-468 [6] = assay: Growth inhibition of human MDA-MB-468 cells assessed as cell growth at 5X10'-7 M after 48 hrs by sulforhodamine B assay; details: MDA-MB-468, 48 h, read-out: Activity
PC-3 [7] = assay: Growth inhibition of human PC3 cells assessed as cell growth at 5X10'-7 M after 48 hrs by sulforhodamine B assay; details: PC-3, 48 h, read-out: Activity
ACHN = assay: Growth inhibition of human ACHN cells assessed as cell growth at 5X10'-7 M after 48 hrs by sulforhodamine B assay; details: read-out: Activity
OVCAR-8 [8] = assay: Growth inhibition of human OVCAR8 cells assessed as cell growth at 5X10'-7 M after 48 hrs by sulforhodamine B assay; details: OVCAR-8, 48 h, read-out: Activity
SK-MEL-28 [9] = assay: Growth inhibition of human SK-MEL-28 cells assessed as cell growth at 5X10'-7 M after 48 hrs by sulforhodamine B assay; details: SK-MEL-28, 48 h, read-out: Activity
LOX IMVI = assay: Growth inhibition of human LOXIMVI cells assessed as cell growth at 5X10'-7 M after 48 hrs by sulforhodamine B assay; details: read-out: Activity
SF-268 [10] = assay: Growth inhibition of human SF268 cells assessed as cell growth at 5X10'-7 M after 48 hrs by sulforhodamine B assay; details: SF-268, 48 h, read-out: Activity
SF-295 = assay: Growth inhibition of human SF295 cells assessed as cell growth at 5X10'-7 M after 48 hrs by sulforhodamine B assay; details: SF-295, 48 h, read-out: Activity
HCT-116 = assay: Growth inhibition of human HCT116 cells assessed as cell growth at 5X10'-7 M after 48 hrs by sulforhodamine B assay; details: HCT-116, 48 h, read-out: Activity
HOP-62 [11] = assay: Growth inhibition of human HOP62 cells assessed as cell growth at 5X10'-7 M after 48 hrs by sulforhodamine B assay; details: HOP-62, 48 h, read-out: Activity
MDA-MB-468 [12] = assay: Growth inhibition of human MDA-MB-468 cells assessed as cell growth at 5X10'-8 M after 48 hrs by sulforhodamine B assay; details: MDA-MB-468, 48 h, read-out: Activity
MCF7 [13] = assay: Growth inhibition of human MCF7 cells assessed as cell growth at 5X10'-8 M after 48 hrs by sulforhodamine B assay; details: MCF7, 48 h, read-out: Activity
PC-3 [14] = assay: Growth inhibition of human PC3 cells assessed as cell growth at 5X10'-8 M after 48 hrs by sulforhodamine B assay; details: PC-3, 48 h, read-out: Activity
TK-10 [15] = assay: Growth inhibition of human TK10 cells assessed as cell growth at 5X10'-8 M after 48 hrs by sulforhodamine B assay; details: TK-10, 48 h, read-out: Activity
RXF 393 = assay: Growth inhibition of human RXF393 cells assessed as cell growth at 5X10'-8 M after 48 hrs by sulforhodamine B assay; details: RXF 393, 48 h, read-out: Activity
786-0 [16] = assay: Growth inhibition of human 786-0 cells assessed as cell growth at 5X10'-8 M after 48 hrs by sulforhodamine B assay; details: 786-0, 48 h, read-out: Activity
OVCAR-8 [17] = assay: Growth inhibition of human OVCAR8 cells assessed as cell growth at 5X10'-8 M after 48 hrs by sulforhodamine B assay; details: OVCAR-8, 48 h, read-out: Activity
U-251 = assay: Growth inhibition of human U251 cells assessed as cell growth at 5X10'-8 M after 48 hrs by sulforhodamine B assay; details: U-251, 48 h, read-out: Activity
UO-31 = assay: Growth inhibition of human UO31 cells assessed as cell growth at 5X10'-5 M after 48 hrs by sulforhodamine B assay; details: UO-31, 48 h, read-out: Activity
PC-3 [18] = assay: Growth inhibition of human PC3 cells assessed as cell growth at 5X10'-5 M after 48 hrs by sulforhodamine B assay; details: PC-3, 48 h, read-out: Activity
A549 = assay: Growth inhibition of human A549/ATCC cells assessed as cell growth at 5X10'-8 M after 48 hrs by sulforhodamine B assay; details: A549, 48 h, read-out: Activity
MDA-MB-468 [19] = assay: Growth inhibition of human MDA-MB-468 cells assessed as cell growth at 5X10'-9 M after 48 hrs by sulforhodamine B assay; details: MDA-MB-468, 48 h, read-out: Activity
MCF7 [20] = assay: Growth inhibition of human MCF7 cells assessed as cell growth at 5X10'-9 M after 48 hrs by sulforhodamine B assay; details: MCF7, 48 h, read-out: Activity
TK-10 [21] = assay: Growth inhibition of human TK10 cells assessed as cell growth at 5X10'-9 M after 48 hrs by sulforhodamine B assay; details: TK-10, 48 h, read-out: Activity
OVCAR-5 = assay: Growth inhibition of human OVCAR5 cells assessed as cell growth at 5X10'-9 M after 48 hrs by sulforhodamine B assay; details: OVCAR-5, 48 h, read-out: Activity
SK-MEL-2 = assay: Growth inhibition of human SK-MEL-2 cells assessed as cell growth at 5X10'-9 M after 48 hrs by sulforhodamine B assay; details: SK-MEL-2, 48 h, read-out: Activity
SK-MEL-28 [22] = assay: Growth inhibition of human SK-MEL-28 cells assessed as cell growth at 5X10'-9 M after 48 hrs by sulforhodamine B assay; details: SK-MEL-28, 48 h, read-out: Activity

Row | Structure (SMILES) | growth at 0.005 µM (KM12) [%] | growth at 50 µM (MDA-MB-435) [%] | growth at 50 µM (SF-268 [1]) [%] | growth at 50 µM (SW-620) [%] | growth at 50 µM (MOLT-4) [%] | growth at 5 µM (MCF7 [2]) [%] | growth at 5 µM (786-0 [3]) [%] | growth at 5 µM (SK-OV-3) [%] | growth at 5 µM (OVCAR-8 [4]) [%] | growth at 0.005 µM (HOP-62 [5]) [%] | growth at 0.005 µM (SR) [%] | growth at 0.5 µM (MDA-MB-468 [6]) [%] | growth at 0.5 µM (PC-3 [7]) [%] | growth at 0.5 µM (ACHN) [%] | growth at 0.5 µM (OVCAR-8 [8]) [%] | growth at 0.5 µM (SK-MEL-28 [9]) [%] | growth at 0.5 µM (LOX IMVI) [%] | growth at 0.5 µM (SF-268 [10]) [%] | growth at 0.5 µM (SF-295) [%] | growth at 0.5 µM (HCT-116) [%] | further results
1 | COc1cc(-c2nn(-c3cccc(NC(=O)Nc4cccc(C(F)(F)F)c4)c3)cc2-c2ccncc2)ccc1Cl | 104 | -63 | -34 | -6 | -17 | 2 | -9 | 16 | -24 | 93 | 93 | 57 | 44 | 58 | 65 | 87 | 81 | 87 | 39 | 66 | growth at 0.5 µM (HOP-62 [11]): 94%; growth at 0.05 µM (MDA-MB-468 [12]): 92%; growth at 0.05 µM (MCF7 [13]): 93%; growth at 0.05 µM (PC-3 [14]): 90%; growth at 0.05 µM (TK-10 [15]): 93%; growth at 0.05 µM (RXF 393): 101%; growth at 0.05 µM (786-0 [16]): 95%; growth at 0.05 µM (OVCAR-8 [17]): 101%; growth at 0.05 µM (U-251): 98%; growth at 50 µM (UO-31): -35%; growth at 50 µM (PC-3 [18]): -22%; growth at 0.05 µM (A549): 97%; growth at 0.005 µM (MDA-MB-468 [19]): 93%; growth at 0.005 µM (MCF7 [20]): 94%; growth at 0.005 µM (TK-10 [21]): 94%; growth at 0.005 µM (OVCAR-5): 84%; growth at 0.005 µM (SK-MEL-2): 101%; growth at 0.005 µM (SK-MEL-28 [22]): 100%
2 | COc1cc(-c2nn(-c3cccc(NC(=O)Nc4cc(C(F)(F)F)cc(C(F)(F)F)c4)c3)cc2-c2ccncc2)ccc1Cl | 103 | -64 | -43 | -65 | -11 | 2 | -60 | -39 | -6 | 100 | 102 | 41 | 33 | 50 | 51 | 89 | 84 | 87 | 45 | 62 | growth at 0.5 µM (HOP-62 [11]): 93%; growth at 0.05 µM (MDA-MB-468 [12]): 85%; growth at 0.05 µM (MCF7 [13]): 91%; growth at 0.05 µM (PC-3 [14]): 90%; growth at 0.05 µM (TK-10 [15]): 98%; growth at 0.05 µM (RXF 393): 92%; growth at 0.05 µM (786-0 [16]): 102%; growth at 0.05 µM (OVCAR-8 [17]): 97%; growth at 0.05 µM (U-251): 94%; growth at 50 µM (UO-31): -93%; growth at 50 µM (PC-3 [18]): -31%; growth at 0.05 µM (A549): 95%; growth at 0.005 µM (MDA-MB-468 [19]): 90%; growth at 0.005 µM (MCF7 [20]): 92%; growth at 0.005 µM (TK-10 [21]): 94%; growth at 0.005 µM (OVCAR-5): 87%; growth at 0.005 µM (SK-MEL-2): 111%; growth at 0.005 µM (SK-MEL-28 [22]): 101%
